Assay: xn = mol fraction of the nth substance listed
Settings: 101 kPa, Liquid; for viscosity: Falling or rolling sphere viscometry; for mass density: Vibrating tube method

OCC[n+]1ccccc1.[Br-] [1-(2-hydroxyethyl)pyridinium bromide] + O
Settings | mass density [kg/m3] | viscosity [mPa·s]
298.15 K, x1 = 0.022 | 1071.4 | 1.138
298.15 K, x1 = 0.045 | 1131.4 | 1.415
298.15 K, x1 = 0.066 | 1177.3 | 1.761
298.15 K, x1 = 0.085 | 1211 | 2.174
298.15 K, x1 = 0.114 | 1256.4 | 2.918
298.15 K, x1 = 0.152 | 1296.4 | 4.134
298.15 K, x1 = 0.195 | 1334.4 | 6.391
298.15 K, x1 = 0.226 | 1356.7 | 8.964
298.15 K, x1 = 0.261 | 1377.5 | 11.93
303.15 K, x1 = 0.022 | 1069.5 | 1.04
303.15 K, x1 = 0.045 | 1129.2 | 1.268
303.15 K, x1 = 0.066 | 1174.8 | 1.576
303.15 K, x1 = 0.085 | 1208.3 | 1.937
303.15 K, x1 = 0.114 | 1251.9 | 2.577
303.15 K, x1 = 0.152 | 1293.5 | 3.62
303.15 K, x1 = 0.195 | 1331.4 | 5.528
303.15 K, x1 = 0.226 | 1353.6 | 7.799
303.15 K, x1 = 0.261 | 1374.3 | 10.25
308.15 K, x1 = 0.022 | 1067.5 | 0.947
308.15 K, x1 = 0.045 | 1126.8 | 1.148
308.15 K, x1 = 0.066 | 1172.2 | 1.424
308.15 K, x1 = 0.085 | 1205.7 | 1.744
308.15 K, x1 = 0.114 | 1247.7 | 2.309
308.15 K, x1 = 0.152 | 1290.5 | 3.233
308.15 K, x1 = 0.195 | 1328.4 | 4.908
308.15 K, x1 = 0.226 | 1350.4 | 6.784
308.15 K, x1 = 0.261 | 1371.2 | 8.888
313.15 K, x1 = 0.022 | 1065.2 | 0.867
313.15 K, x1 = 0.045 | 1124.3 | 1.046
313.15 K, x1 = 0.066 | 1169.6 | 1.294
313.15 K, x1 = 0.085 | 1202.9 | 1.581
313.15 K, x1 = 0.114 | 1244.9 | 2.082
313.15 K, x1 = 0.152 | 1287.5 | 2.894
313.15 K, x1 = 0.195 | 1325.3 | 4.33
313.15 K, x1 = 0.226 | 1347.3 | 5.9
313.15 K, x1 = 0.261 | 1368 | 7.704
318.15 K, x1 = 0.022 | 1062.7 | 0.8
318.15 K, x1 = 0.045 | 1121.8 | 0.96
318.15 K, x1 = 0.066 | 1166.9 | 1.184
318.15 K, x1 = 0.085 | 1200.1 | 1.44
318.15 K, x1 = 0.114 | 1241.9 | 1.887
318.15 K, x1 = 0.152 | 1284.5 | 2.604
318.15 K, x1 = 0.195 | 1322.2 | 3.868
318.15 K, x1 = 0.226 | 1344.2 | 5.148
318.15 K, x1 = 0.261 | 1364.8 | 6.721
323.15 K, x1 = 0.022 | 1060.2 | 0.741
323.15 K, x1 = 0.045 | 1119.1 | 0.886
323.15 K, x1 = 0.066 | 1164.1 | 1.086
323.15 K, x1 = 0.085 | 1197.2 | 1.32
323.15 K, x1 = 0.114 | 1238.9 | 1.721
323.15 K, x1 = 0.152 | 1281.4 | 2.36
323.15 K, x1 = 0.195 | 1319 | 3.478
323.15 K, x1 = 0.226 | 1341 | 4.527
323.15 K, x1 = 0.261 | 1361.6 | 5.895
328.15 K, x1 = 0.022 | 1057.8 | 0.692
328.15 K, x1 = 0.045 | 1116.2 | 0.82
328.15 K, x1 = 0.066 | 1161.1 | 1.008
328.15 K, x1 = 0.085 | 1194.2 | 1.215
328.15 K, x1 = 0.114 | 1235.9 | 1.578
328.15 K, x1 = 0.152 | 1278.3 | 2.149
328.15 K, x1 = 0.195 | 1315.9 | 3.137
328.15 K, x1 = 0.226 | 1337.8 | 4.03
328.15 K, x1 = 0.261 | 1358.4 | 5.207
333.15 K, x1 = 0.022 | 1055.5 | 0.645
333.15 K, x1 = 0.045 | 1113.1 | 0.766
333.15 K, x1 = 0.066 | 1158.1 | 0.933
333.15 K, x1 = 0.085 | 1191.2 | 1.126
333.15 K, x1 = 0.114 | 1232.8 | 1.451
333.15 K, x1 = 0.152 | 1275.2 | 1.969
333.15 K, x1 = 0.195 | 1312.7 | 2.833
333.15 K, x1 = 0.226 | 1334.6 | 3.615
333.15 K, x1 = 0.261 | 1355.2 | 4.632
338.15 K, x1 = 0.022 | 1053.3 | 0.608
338.15 K, x1 = 0.045 | 1111 | 0.716
338.15 K, x1 = 0.066 | 1155.7 | 0.869
338.15 K, x1 = 0.085 | 1187.8 | 1.045
338.15 K, x1 = 0.114 | 1229.7 | 1.344
338.15 K, x1 = 0.152 | 1272 | 1.809
338.15 K, x1 = 0.195 | 1309.5 | 2.599
338.15 K, x1 = 0.226 | 1331.4 | 3.284
338.15 K, x1 = 0.261 | 1352 | 4.101
343.15 K, x1 = 0.022 | 1051 | 0.571
343.15 K, x1 = 0.045 | 1108.4 | 0.674
343.15 K, x1 = 0.066 | 1153 | 0.816
343.15 K, x1 = 0.085 | 1184.6 | 0.976
343.15 K, x1 = 0.114 | 1226.5 | 1.257
343.15 K, x1 = 0.152 | 1268.8 | 1.696
343.15 K, x1 = 0.195 | 1306.3 | 2.37
343.15 K, x1 = 0.226 | 1328.2 | 2.945
343.15 K, x1 = 0.261 | 1348.7 | 3.732
348.15 K, x1 = 0.022 | 1048.8 | 0.538
348.15 K, x1 = 0.045 | 1105.8 | 0.634
348.15 K, x1 = 0.066 | 1150.3 | 0.763
348.15 K, x1 = 0.085 | 1181.8 | 0.911
348.15 K, x1 = 0.114 | 1223.1 | 1.197
348.15 K, x1 = 0.152 | 1265.5 | 1.605
348.15 K, x1 = 0.195 | 1303 | 2.228
348.15 K, x1 = 0.226 | 1324.9 | 2.693
348.15 K, x1 = 0.261 | 1345.5 | 3.372

Reference: the NIST ThermoML archive (doi:10.1016/j.fluid.2019.05.003)
